Experimental data: PMC3763380, “Cellular-Level Versus Receptor-Level Response Threshold Hierarchies in T-Cell Activation” (Frontiers in Immunology, 2013)
pKd: −log10 of the molar value.

Key:
[1] = target: ILA1 TCR; conditions: SPR, ILA1 TCR/pMHCI; not first reported here (footnote Table 1); ligands largely characterized previously; ref [27], [28]; cited from earlier work
Protocol: Table 1 Biophysical parameters. | column: On-rate (M^−1s^−1); Off-rate (s^−1); KD (M) || Figure 3 Functional variation at the cell population level in response to six different peptide ligands. The CTL clone ILA1 was stimulated for 6 h with peptide-pulsed C1R-A2 targets as indicated. Five functional read-outs (CD107a, MIP-1β, TNF-α, IL-2, and IFN-γ) were measured via flow cytometry. […] (A) Overview of functional profiles. Pie chart segments represent the fraction of cells expressing the number of functions indicated in the key. (B) Detailed analysis of functional profiles at [peptide] = 10^−6 M. Pie charts are extended with arc ...

[2] = test system: CTL clone ILA1; test: Bioassay: ILA1 CTL response to peptide-pulsed C1R-A2null targets (CD8-null HLA-A2), flow cytometry; type: cell-based; conditions: read-outs CD107a, MIP-1β, TNF-α, IL-2, IFN-γ
Protocol: Stable C1R transfectants expressing wild-type HLA-A2 (C1R-A2) or CD8-null HLA-A2 (C1R-A2null), the α3 domain of which contains the double mutation D227K/T228A that abrogates CD8 binding ([30]), were pulsed with peptide as indicated for 1 h at 37°C. For each condition, assays were set up simultaneously in 96-well plates using 4.5 × 10^5 C1R cells per well, thereby ensuring that all cellular parameters were consistent across ligand stimulations. Subsequently, brefeldin A (10 μg/ml; BD Biosciences) and monensin (0.7 μl/ml; BD Biosciences) were added together with a pre-titred concentration of the directly conjugated monoclonal antibody (mAb) αCD107a-FITC [BD Pharmingen; Ref. ([31])]. […]
Stained cell samples were acquired and recorded using a customized FACS Aria II flow cytometer (BD Biosciences) equipped for the simultaneous detection of 18 fluorescent parameters. […] The following gating tree was applied: (i) single cells were identified based on their light scatter properties; (ii) Boolean gating was carried out to exclude artifacts and fluorochrome aggregates; (iii) viable CD3^+CD19^− events were selected; (iv) outliers were eliminated in a side-scatter versus CD3 display; and (v) gates were set on cells positive for individual functional read-outs. […]

ILAKFLHWL [residues 540–548 (…) of the human telomerase reverse transcriptase protein]
pKd [1]: 4.49
Off-rate [1]: 0.13 s⁻¹
On-rate [1]: 4,100 M^−1s^−1
responses at sufficiently high presentation levels [2]: strongly attenuated but discernible responses
